Reference: patent US7807675B2, “Hyaluronic acid-methotrexate conjugate” (priority 2004, dated 2010)

Legend:
[1] = test system: human synovial cells derived from OA patients (HFLS-OA); assay: Suppressive effect on proliferation of human synovial cells (HFLS-OA) stimulated by TNF-α; format: cell-based; conditions: TNF-α 10 ng/mL, 5 days, [3H]-deoxyuridine uptake, concentration calculated as MTX
Text: (§1) Effects of the HA-MTX conjugates of the invention on cell proliferation induced by TNF-α stimulation were examined using human synovial cells (HFLS). The main lesion in rheumatoid arthritis (RA) occurs in the synovial tissue, and one of the features of RA is known to be that synovial cells abnormally proliferate to form a granulation tissue (pannus) and thereby destroy the cartilage and bone of the joint. Secondary synovitis is also observed in osteoarthritis (OA). […] Thus, a compound inhibiting the proliferation of synovial cells stimulated by an inflammatory cytokine, TNF-α, becomes a drug for suppressing the progression of the pathologic conditions of, or for treating RA and OA.
(§2) The sterile aqueous solutions of the HA-MTX conjugates in Example 3 were used as test substances. As HFLS, human synovial cells derived from RA patients (HFLS-RA, CA404-05, Lot No.: 1493) and human synovial cells derived from OA patients (HFLS-OA, CA400-05, Lot No.: 1442) were purchased from Cell Applications Ins for use.
(§3) HFLS was seeded at 5,000 cells/well on a 96-well plate (Falcon) and cultured for 3 hours in Iscove's modified Dulbecco's medium (IMDM) containing 5% FBS and 1× Antibiotic-Antimycotic (GIBOC). After cellular attachment, TNF-α (final concentration: 10 ng/mL) and each HA-MTX conjugate at each concentration was added, followed by cultivation for 5 days. Two days before the end of culture, was added 37 kBq/well of [^3H]-deoxyuridine in the cells (MORAVEK), followed by determining the uptake quantity (radioactivity) of [^3H]-deoxyuridine using a scintillation counter. Cells were recovered by unsticking them with 0.05% trypsin-0.2% EDTA.
(§4) Radioactivity determined in each of the experiments with each test substance was calculated as a relative value (% of control), using, as control, radioactivity in the group of cells cultured without adding any test substance. Since the concentration of a free carboxyl group is 2.49×10^−3 mol/L (1 g/401/L; 401 is the molecular weight of N-acetylglucosamine+glucuronic acid) for each 1 mg/mL of hyaluronic acid, the MTX concentration in each HA-MTX was calculated by multiplying the value by the conjugation rate of MTX. (For 1 mg/mL of HA-MTX conjugate with a conjugation rate of MTX of 1%, the concentration of MTX was 2.49×10^−5 mol/L) The value obtained was used to calculate the activity of inhibiting cell proliferation (IC50 value) by a 4-parameter logistic method (analysis software: GraphPad Prism 3.02 and 4.02).

[2] = test system: mBSA-induced monoarthritis model; assay: Suppressive effect on knee joint swelling in mBSA-induced monoarthritis model; format: in vivo, rat; conditions: for AUC (% of control) (mean ± SEM): AUC of knee joint swelling, control = HA-treated group, LEW/Crj rat, 50 μL into right knee joint 7 and 1 day before and 7 days after inducing arthritis
Method: An in vivo synovitis-suppressing effect of each HA-MTX conjugate of the invention was assessed on the basis of a suppressive effect on knee joint swelling in a methylated bovine serum albumin (mBSA)-induced monoarthritis model of rat. Since the mBSA-induced arthritis model employed in this experimental example is widely used as an antigen-induced arthritis model, and known to develop synovitis (Sven E. Andersson, et al., The Journal of Rheumatology (1998) 25: 9, 1772-7), the in vivo knee joint swelling-suppressing effect observed in this model conceivably represents a synovitis-suppressing effect. The compounds of the invention suppressing synovitis in vivo are useful as therapeutic drugs for joint diseases accompanied by synovitis (RA, OA, and the like).
The animal used was the LEW/Crj rat (6-week old male, from Charles River Laboratories Japan, Inc.). Into the flank of the rat was subcutaneously injected 0.5 mL of an emulsion prepared from a 2 mg/mL mBSA (Calbiochem) aqueous solution and an equal amount of Freund's complete adjuvant (Difco) 21 and 14 days before inducing arthritis. The arthritis was induced by administering 50 μL of a 2 mg/mL mBSA aqueous solution into the right knee joint. The left knee joint was untreated, and served as control in each individual. Each test substance (sterile aqueous solution) and the control drug hyaluronic acid were each administered into the right knee joint in an amount of 50 μL 7 and 1 day before and 7 days after inducing arthritis.
The determination of knee joint swelling involved measuring the widths of both knee joints with calipers to define the left/right difference (right knee diameter−left knee diameter) as a knee joint swelling. The width of each knee joint was measured at a frequency of twice a week from immediately before inducing arthritis to two weeks later to calculate AUC (an abbreviation for Area Under the Curve; here, it means an area under a curve with time for the joint swelling) from the transition thereof with time. At each measurement, the mean and standard deviation of AUC were calculated to perform an unpaired t-test between each test substance-treated group and the HA-treated group, and significant difference was judged to be present if the probability level is less than 5%. Statistical analysis used SAS version 6.12 or 8.02 (SAS Institute Japan). In addition, the AUC of each test substance was calculated, using that in the HA-treated group as a control, as a relative value (% of control) therefor.
To verify the usefulness of the HA-MTX conjugate of the invention, the suppressive effect on joint swelling was compared, in accordance with the method of Example 3, among: 1) a group treated with the HA-MTX conjugate (sterile aqueous solution) prepared in Example 3-10; 2) a group treated with a solution containing MTX of an amount equal to that of MTX contained in the HA-MTX conjugate; and 3) a group of treated with a mixture (HA+MTX) of MTX and hyaluronic acid (HA) of amounts equal to those contained in the conjugate. HA and vehicle (2 mM phosphate buffer, 0.9% NaCl) was used as controls. In this Experimental Example, Suvenyl (SVE, Chugai Pharmaceutical Co., Ltd.) was used as HA. The time course of knee joint swelling in this test is shown in FIG. 1, and the AUC thereof in FIG. 2.

[3] = test system: human synovial cells derived from RA patients (HFLS-RA); assay: Suppressive effect on proliferation of human synovial cells (HFLS-RA) stimulated by TNF-α; format: cell-based; conditions: TNF-α 10 ng/mL, 5 days, [3H]-deoxyuridine uptake, concentration calculated as MTX
Text: as §1, §2, §3, §4

| Compound | IC50 [1] | AUC (% of control) (mean ± SEM) [2] | IC50 [3] | alleviating effect on synovitis ([2]; Experimental Example 4, arthritis model, amounts equal to those in the conjugate of Example 3-10) | suppressive effect on the joint swelling ([2]; Experimental Example 4, compared to MTX alone or the mixture of MTX and HA in equal amounts, FIGS. 1 and 2) |
| --- | --- | --- | --- | --- | --- |
| MTX-α-PhePhe-NHC10H20O3NHCO—O—[HA] [Example 3-11] | 33000 nM | 67.1 ± 8.0 % of control | – | – | – |
| CN(Cc1cnc2nc(N)nc(N)c2n1)c1ccc(C(=O)N[C@@H](CCC(=O)O)C(=O)O)cc1 [MTX alone, methotrexate] | 310 nM | – | 110 nM | neither MTX alone nor the mixture of HA and MTX had a sufficient alleviating effect on synovitis | – |
| MTX-α-PhePhe-NHC10H20O3NHCO—O—[HA] [Example 3-2] | – | – | 460 nM | – | – |
| MTX-α-PhePhe-NHC10H20O3NHCO—O—[HA] [Example 3-4] | – | 53.6 ± 5.4 % of control | – | – | – |
| MTX-α-Ile-NHC10H20O3NHCO—O—[HA] [Example 3-16] | 230 nM | 65.5 ± 4.4 % of control | – | – | – |
| MTX-α-PhePhe-NHC10H20O3NHCO—O—[HA] [Example 3-6] | 1400 nM | 69.7 ± 7.2 % of control | – | – | – |
| MTX-α-PhePhe-NHC10H20O3NHCO—O—[HA] [Example 3-1] | – | – | 1200 nM | – | – |
| MTX-α-PhePhe-NHC10H20O3NHCO—O—[HA] [Example 3-3] | – | 59.7 ± 5.4 % of control | 96 nM | – | – |
| MTX-α-PhePhe-NHC10H20O3NHCO—O—[HA] [Example 3-10] | 77 nM | 42.3 ± 4.8 % of control | – | – | markedly strong suppressive effect on the joint swelling in the arthritis model compared to that of MTX alone or the mixture of MTX and HA |
| MTX-α-PhePhe-NHC10H20O3NHCO—O—[HA] [Example 3-8] | 140 nM | – | – | – | – |
| MTX-α-PhePhe-NHC10H20O3NHCO—O—[HA] [Example 3-9] | 180 nM | 48.4 ± 2.9 % of control | – | – | – |
| MTX-α-PhePhe-NHC10H20O3NHCO—O—[HA] [Example 3-12] | 2000 nM | 49.2 ± 1.2 % of control | – | – | – |
| MTX-α-PhePhe-NHC10H20O3NHCO—O—[HA] [Example 3-7] | 410 nM | 47.7 ± 4.3 % of control | – | – | – |
| MTX-α-PhePhe-NHC10H20O3NHCO—O—[HA] [Example 3-5] | – | 46.6 ± 4.0 % of control | – | – | – |
| MTX-α-PhePhe-NHC10H20O3NHCO—O—[HA] [Example 3-13] | 290 nM | 42.0 ± 4.5 % of control | – | – | – |
| MTX-α-PheGly-NHC10H20O3NHCO—O—[HA] [Example 3-15] | 450 nM | 50.1 ± 4.9 % of control | – | – | – |
| MTX-α-PhePhe-NHC10H20O3NHCO—O—[HA] [Example 3-14] | 9700 nM | – | – | – | – |
